Measured values taken from PubChem BioAssay (NCI).
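48-hour exposure; five concentrations; linearly interpolated endpoints. Definition used: TGI = concentration required for complete inhibition of growth.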

Experiments:
Assay in all cases: NCI tumour cell line growth inhibition, 48 h
[1] = test system: SF-539 CNS
[2] = test system: MOLT-4 leukemia
[3] = test system: ACHN renal
[4] = test system: A549 NSCLC
[5] = test system: PC-3 prostate
[6] = test system: SK-MEL-2 melanoma
[7] = test system: SK-MEL-5 melanoma
[8] = test system: HT29 colon
[9] = test system: BT-549 breast
[10] = test system: T-47D breast
[11] = test system: M14 melanoma
[12] = test system: HCC-2998 colon
[13] = test system: NCI-H460 lung
[14] = test system: OVCAR-4 ovarian
[15] = test system: SK-MEL-28 melanoma
[16] = test system: OVCAR-8 ovarian
[17] = test system: SF-295 CNS
[18] = test system: SNB-19 CNS
[19] = test system: OVCAR-3 ovarian
[20] = test system: SF-268 CNS
[21] = test system: OVCAR-5 ovarian
[22] = test system: RPMI-8226 leukemia
[23] = test system: NCI-H226 lung
[24] = test system: HCT-15 colon
[25] = test system: NCI-H522 lung
[26] = test system: U251 CNS
[27] = test system: TK-10 renal
[28] = test system: NCI/ADR-RES ovarian
[29] = test system: EKVX NSCLC
[30] = test system: IGROV1 ovarian
[31] = test system: SNB-75 CNS
[32] = test system: MCF7 breast
[33] = test system: UACC-257 melanoma
[34] = test system: KM12 colon
[35] = test system: RXF 393 renal
[36] = test system: HCT-116 colon
[37] = test system: CCRF-CEM leukemia
[38] = test system: MDA-MB-231 breast
[39] = test system: A498 renal
[40] = test system: UO-31 renal
[41] = test system: MALME-3M melanoma
[42] = test system: SN12C renal
[43] = test system: NCI-H23 lung
[44] = test system: K-562 leukemia
[45] = test system: SW-620 colon
[46] = test system: MDA-MB-435
[47] = test system: SK-OV-3 ovarian
[48] = test system: HOP-62 NSCLC
[49] = test system: 786-0 renal
[50] = test system: UACC-62 melanoma
[51] = test system: SR leukemia
[52] = test system: MDA-N
[53] = test system: HS 578T breast
[54] = test system: COLO 205 colon
[55] = test system: HL-60(TB) leukemia
[56] = test system: LOX IMVI melanoma
[57] = test system: HOP-92 NSCLC
[58] = test system: CAKI-1 renal
[59] = test system: DU-145 prostate

## CN(CC(=O)O)Cc1oc(CO)cc(=O)c1O
[1]
  TGI: > 100 µM
[2]
  TGI: > 100 µM
[3]
  TGI: > 100 µM
[4]
  TGI: > 100 µM
[5]
  TGI: > 100 µM
[6]
  TGI: > 100 µM
[7]
  TGI: > 100 µM
[8]
  TGI: > 100 µM
[9]
  TGI: > 100 µM
[10]
  TGI: > 100 µM
[11]
  TGI: > 100 µM
[12]
  TGI: > 100 µM
[13]
  TGI: > 100 µM
[14]
  TGI: > 100 µM
[15]
  TGI: > 100 µM
[16]
  TGI: > 100 µM
[17]
  TGI: > 100 µM
[18]
  TGI: > 100 µM
[19]
  TGI: > 100 µM
[20]
  TGI: > 100 µM
[21]
  TGI: > 100 µM
[22]
  TGI: > 100 µM
[23]
  TGI: > 100 µM
[24]
  TGI: > 100 µM
[25]
  TGI: > 100 µM
[26]
  TGI: > 100 µM
[27]
  TGI: > 100 µM
[28]
  TGI: > 100 µM
[29]
  TGI: > 100 µM
[30]
  TGI: > 100 µM
[31]
  TGI: > 100 µM
[32]
  TGI: > 100 µM
[33]
  TGI: > 100 µM
[34]
  TGI: > 100 µM
[35]
  TGI: > 100 µM
[36]
  TGI: > 100 µM
[37]
  TGI: > 100 µM
[38]
  TGI: > 100 µM
[39]
  TGI: > 100 µM
[40]
  TGI: > 100 µM
[41]
  TGI: > 100 µM
[42]
  TGI: > 100 µM
[43]
  TGI: > 100 µM
[44]
  TGI: > 100 µM
[45]
  TGI: > 100 µM
[46]
  TGI: > 100 µM
[47]
  TGI: > 100 µM
[48]
  TGI: > 100 µM
[49]
  TGI: > 100 µM
[50]
  TGI: > 100 µM
[51]
  TGI: > 100 µM
[52]
  TGI: > 100 µM
[53]
  TGI: > 100 µM
[54]
  TGI: > 100 µM
[55]
  TGI: 76.5 µM
[56]
  TGI: > 100 µM
[57]
  TGI: > 100 µM
[58]
  TGI: > 100 µM

## COc1ccc([C@]23CCN4COC[C@@H]([C@H]42)C2(CC3)OCC(C)(C)CO2)cc1OC
[2]
  TGI: > 100 µM
[3]
  TGI: > 100 µM
[4]
  TGI: > 100 µM
[5]
  TGI: > 100 µM
[6]
  TGI: > 100 µM
[59]
  TGI: > 100 µM
[7]
  TGI: > 100 µM
[8]
  TGI: > 100 µM
[9]
  TGI: > 100 µM
[10]
  TGI: > 100 µM
[11]
  TGI: > 100 µM
[12]
  TGI: > 100 µM
[13]
  TGI: > 100 µM
[14]
  TGI: > 100 µM
[15]
  TGI: > 100 µM
[16]
  TGI: > 100 µM
[17]
  TGI: > 100 µM
[18]
  TGI: > 100 µM
[20]
  TGI: > 100 µM
[21]
  TGI: > 100 µM
[22]
  TGI: > 100 µM
[23]
  TGI: > 100 µM
[24]
  TGI: > 100 µM
[25]
  TGI: > 100 µM
[26]
  TGI: > 100 µM
[27]
  TGI: > 100 µM
[28]
  TGI: > 100 µM
[29]
  TGI: > 100 µM
[30]
  TGI: > 100 µM
[31]
  TGI: > 100 µM
[32]
  TGI: > 100 µM
[33]
  TGI: > 100 µM
[34]
  TGI: > 100 µM
[35]
  TGI: > 100 µM
[36]
  TGI: > 100 µM
[37]
  TGI: > 100 µM
[38]
  TGI: > 100 µM
[39]
  TGI: > 100 µM
[40]
  TGI: > 100 µM
[41]
  TGI: > 100 µM
[42]
  TGI: > 100 µM
[43]
  TGI: > 100 µM
[44]
  TGI: > 100 µM
[45]
  TGI: > 100 µM
[46]
  TGI: > 100 µM
[47]
  TGI: > 100 µM
[48]
  TGI: > 100 µM
[49]
  TGI: > 100 µM
[50]
  TGI: > 100 µM
[51]
  TGI: > 100 µM
[52]
  TGI: > 100 µM
[53]
  TGI: > 100 µM
[54]
  TGI: > 100 µM
[55]
  TGI: > 100 µM
[56]
  TGI: > 100 µM
[57]
  TGI: > 100 µM
[58]
  TGI: > 100 µM
